In patent US20190351019A1, “STEROID ADMINISTRATION AND IMMUNOTHERAPY” (Intrexon Corporation, priority 2016, published 2019):

Assay: Infusion of CAR-T cells followed by prednisone in a B-ALL patient: GVHD course and blood counts (case report)
Type: in vivo, human
Details: about 1 mg/kg starting day 14; on day 18 (or Day 48 since administration of CAR-T cells); dose then reduced to about 0.5 mg/kg
Method: A person was diagnosed with B-cell acute lymphoblastic leukemia (B-ALL). […] Multiple salvage therapies were given. POMP maintenance therapy was subsequently started. The patient further developed graft-versus-host disease GVHD and was treated with prednisone and tacrolimus. Additional radiation therapy (XRT), immunotherapy, hyperCAVD and O-EPOCH were further administered to the patient. Further, lymphodepletion was induced in the patient with cyclophosphamide at 500 mg/m^2 and fludarabine at 30 mg/m^2 for 3 days. Following lymphodepletion, 10^6 CAR-T cells/kg were infused into the patient on day 0. […] About 1 mg/kg of prednisone was administered starting day 14. […] White blood cell count (WBC) was 2.7 and absolute lymphocyte count (ALC) was 200.

Question: Which “outcome of GVHD under prednisone” value does the source give for `C[C@]12C=CC(=O)C=C1CC[C@@H]1[C@@H]2C(=O)C[C@@]2(C)[C@H]1CC[C@]2(O)C(=O)CO` [prednisone] here?
Answer: GVHD was resolved
